Reference: PubChem BioAssay (NCI)
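96-well plates; 48 h exposure; 5 concentrations. Endpoints by linear interpolation between flanking doses. Not reached: highest tested concentration assigned. At the TGI there is no net growth.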

Key:
Experiment in all cases: DTP human tumour cell line panel, 48 h
HCT-116 colon = system: HCT-116 colon
TK-10 renal = system: TK-10 renal
OVCAR-5 ovarian = system: OVCAR-5 ovarian
HCT-15 colon = system: HCT-15 colon
SF-295 CNS = system: SF-295 CNS
SF-268 CNS = system: SF-268 CNS
KM12 colon = system: KM12 colon
EKVX NSCLC = system: EKVX NSCLC
A549 NSCLC = system: A549 NSCLC
A498 renal = system: A498 renal

Row | SMILES | TGI (HCT-116 colon) [µM] | TGI (TK-10 renal) [µM] | TGI (OVCAR-5 ovarian) [µM] | TGI (HCT-15 colon) [µM] | TGI (SF-295 CNS) [µM] | TGI (SF-268 CNS) [µM] | TGI (KM12 colon) [µM] | TGI (EKVX NSCLC) [µM] | TGI (A549 NSCLC) [µM] | TGI (A498 renal) [µM]
1 | C/C(CC(O)(C(F)(F)F)C(F)(F)F)=N\O | > 10 | > 10 | > 10 | > 10 | > 10 | > 10 | > 10 | > 10 | > 10 | > 10
2 | C/C(N=NS(=O)(=O)c1c(C)cc(C)cc1C)=C1\C=CC=CN1O | > 100 | > 100 | > 100 | > 100 | > 100 | > 100 | > 100 | > 100 | > 100 | > 100
3 | CNCC(SC)c1ccc(O)c(O)c1 (stereo not given) | 43.7 | 34 | > 100 | > 100 | > 100 | > 100 | > 100 | 37.1 | > 100 | > 100
4 | CC(C)(C)N=C1C(=O)C2(C)CCC1C2(C)C (stereo not given) | > 100 | > 100 | > 100 | > 100 | > 100 | > 100 | > 100 | > 100 | > 100 | 41.2
5 | CC(=O)N1CCOC12N=NC(C)(C)O2 (stereo not given) | > 100 | > 100 | > 100 | > 100 | > 100 | > 100 | > 100 | > 100 | > 100 | > 100
6 | COC1OC(C)/C(=N/O)C2OC(C)(C)OC12 (stereo not given) | > 100 | > 100 | > 100 | > 100 | > 100 | > 100 | > 100 | > 100 | > 100 | > 100
7 | O=C(NNC(=O)c1ccncc1)C(=O)Nc1cc(Cl)c(Cl)cc1Cl | > 100 | > 100 | > 100 | > 100 | > 100 | > 100 | > 100 | > 100 | > 100 | > 100
8 | CC(C)(C)OC(=O)NCC(c1c[nH]c2ccccc12)c1c[nH]c2ccccc12 | 30.4 | 28.9 | 31.4 | 53.5 | 32.8 | 33.6 | 28.6 | 26.2 | 29.2 | > 100
9 | COc1ccc(-c2csc3c2[N+]2(C)C=CC=C2C3N2CCCC2)cc1 (stereo not given) | > 100 | > 100 | > 100 | > 100 | 54 | > 100 | 34.9 | > 100 | > 100 | > 100
10 | O=C(O)c1c(CC(Cc2ccccc2)C(=O)O)ccc2c1CCC2 (stereo not given) | > 100 | > 100 | > 100 | > 100 | > 100 | > 100 | > 100 | > 100 | > 100 | > 100
11 | CC1(C)Cc2ccccc2C(C)(Cl)C(=O)N1 (stereo not given) | > 10 | > 10 | > 10 | > 10 | > 10 | > 10 | > 10 | > 10 | > 10 | > 10
12 | C[C@H](NC(=O)C(C)(Cc1ccc(O)cn1)NC(=O)c1ccccc1)c1ccccc1 (stereo not given in full) | > 100 | > 100 | > 100 | > 100 | > 100 | > 100 | > 100 | > 100 | > 100 | > 100
13 | COc1ccc(N=C(C)C(C)=Nc2ccc(OC)cc2)cc1 | > 100 | > 100 | > 100 | > 100 | > 100 | > 100 | > 100 | > 100 | > 100 | > 100
14 | CN1CCC(O)(OC(=O)C(c2ccccc2)C2(O)CCCC2)CC1 (stereo not given) | > 100 | > 100 | > 100 | > 100 | > 100 | > 100 | > 100 | > 100 | > 100 | > 100
15 | Nc1ccnc2c1ncn2[C@H]1C[C@H](O)[C@@H](CO)O1 | > 100 | > 100 | > 100 | > 100 | > 100 | > 100 | > 100 | > 100 | > 100 | > 100
16 | O=Cn1c2ccccc2c2ccccc21 | > 100 | > 100 | > 100 | > 100 | > 100 | > 100 | > 100 | > 100 | > 100 | > 100
17 | C[C@@H]1C[C@@H]2OC(=O)[C@]3(C)[C@H]2[C@@H](OC3(C)O)[C@]2(C)C(=O)C=C[C@@H]12 (stereo not given in full) | 37.6 | > 100 | 41 | 30.2 | > 100 | > 100 | 58.7 | 49.2 | > 100 | 70.6
18 | Clc1cc(Cl)nc(Nc2ccc3c(c2)CCC3)n1 | > 100 | > 100 | > 100 | > 100 | > 100 | > 100 | 59.1 | 71.5 | > 100 | > 100
